According to patent US8722626B2, “Method for controlling fibrosis and other pathological deposits in tissues comprising administering a GHRP-6 composition” (Centro de Ingenieria Genetica y Biotecnologia, priority 2006, dated 2014):
Marks after values point to notes of the source that are not given here.

Columns and labels:
[1] = test system: renal fibrosis in rats (Doxorubicin); assay: Reverting renal fibrosis induced by Doxorubicin in rats (Example 3); type: in vivo, rat; details: for GOT serum level (integrity of the hepatic parenchyma) / GPT serum level (integrity of the hepatic parenchyma) / OH—P Content (hydroxiproline) in kidneys / Grado 0 (null) fibrosis in kidneys, numbers of animals per group / Grado 1 (moderate) fibrosis in kidneys, numbers of animals per group / Grado 2 (intense) fibrosis in kidneys, numbers of animals per group / Grado 3 (very intense) fibrosis in kidneys, numbers of animals per group: 4 weeks; for GOT serum level (integrity of the hepatic parenchyma) / GPT serum level (integrity of the hepatic parenchyma) / OH—P Content (hydroxiproline) in kidneys: end of treatment; for OH—P Content (hydroxiproline) in kidneys: 20 fragments per group; for Grado 0 (null) fibrosis in kidneys, numbers of animals per group / Grado 1 (moderate) fibrosis in kidneys, numbers of animals per group / Grado 2 (intense) fibrosis in kidneys, numbers of animals per group / Grado 3 (very intense) fibrosis in kidneys, numbers of animals per group: N = 20; for Catalase (oxidative stress marker) / HPT (oxidative stress marker) / MDA (oxidative stress marker) / SODt (oxidative stress marker): renal tissue samples, end of the fourth week of treatment
Procedure: This experiment was conducted to evaluate the effect of the pharmaceutical composition containing GHRP-6 in reverting renal fibrosis in rats. In this case, the process was induced by sustained administration of the anti-neoplasic agent Doxorubicin (DX) at a 2.5 mg/kg dosage twice a week during 8 weeks. […] This point forward, DX administration was interrupted and the treatment with the pharmaceutical composition containing the GHRP-6 was started. The treatment was applied once daily at 100 and 400 μg/kg in a volume of 1 ml by the intraperitoneal route, during 4 weeks. The animals remaining were randomly distributed into three experimental groups of 20 rats each: (1) Control placebo group, receiving physiological saline solution, (2) Group receiving the GHRP-6 at a 100 μg/kg dosage, and (3) Group receiving the GHRP-6 at a 400 μg/kg dosage. When treatments concluded, the animals were sacrificed by anesthesia overdose and livers, kidneys, lungs and blood sera were collected. Tissue fragments were fixed in formalin neutral and processed by hematoxylin/eosin staining, or by Masson's trichromic staining, to evaluate the general damage and the severity of fibrotic indurations. Other fragments were stored at −70° C. until processing to determine the content of hydroxiproline by acid hydrolysis in 1N HCl, and also the levels of creatinine and oxidative stress markers. Biochemical determinations were carried out by calculating the total protein content by the Bradford's method.

[2] = test system: pulmonary fibrosis in rats (Bleomycin); assay: Control of pulmonary fibrosis induced by Bleomycin in rats (Example 4); type: in vivo, rat; details: 4 weeks; for Grade 0 pulmonary fibrosis (no evidences of fibrosis), animals per group / Grade 1 pulmonary fibrosis (predominantly vascular), animals per group / Grade 2 pulmonary fibrosis (additional peri-bronchial compromise), animals per group / Grade 3 pulmonary fibrosis (also interalveolar septum), animals per group: N = 15; for OH—P content (hydroxiproline) in lungs: end of treatment, 15 fragments per group
Procedure: In this case, the process as induced by sustained administration of the anti-neoplasic agent Bleomycin (Ble) at a 2.5 U/kg dosage twice a week during 4 weeks. […] This point forward, the administration of Ble was suspended and treatment with the pharmaceutical composition containing the GHRP-6 was started. The treatment was applied once daily, at 100 and 400 μg/kg in a 1 ml volume by intraperitoneal route during 4 weeks. […] When treatments concluded, the animals were sacrificed by anesthesia overdose and lungs and blood serum were collected. Tissue fragments were fixed in formalin neutral and processed by hematoxylin/eosin staining, or by Masson's trichromic staining, to evaluate the general damage and the severity of fibrotic indurations. Other fragments of lung tissues were stored at −70° C. until processing to determine the content of hydroxiproline by acid hydrolysis in 1N HCl, and also the […] levels of redox metabolism markers. Biochemical determinations were carried out by calculating the total protein content by the Bradford's method. Histological evaluation of the fibro-proliferative reaction in lungs includes the process of peri-vascular, peri-bronchial and septal fibrosis. The overall grade of pulmonary fibrosis was established according to the extension and intensity of the process in these three segments, to determine the percent of animals affected or unaffected at the end of the treatment with the GHRP-6. The numbers of animals in every group with fibrotic lungs according to the severity of fibrosis are:
Grade 0—No evidences of fibrosis or only thin and diffuse fiber or areolar material foci present, without respiratory compromise.
Grade 1—Fibrosis predominantly vascular in more than 75% of arterioles and capillaries.
Grade 2—Fibrosis predominantly vascular in more than 75% of arterioles and capillaries, with additional peri-bronchial compromise.
Grade 3—Fibrosis predominantly vascular in more than 75% of arterioles and capillaries, with additional peri-bronchial compromise. Fibrotic material is also detected in the interalveolar septum.

[3] = Dosage I: 100 μg/kg i.p. once daily
[4] = Dosage II: 400 μg/kg i.p. once daily
[5] = Dosis I: 100 μg/kg i.p. once daily
[6] = Dosis II: 400 μg/kg i.p. once daily

## GHRP-6
[1]; [3]
  GOT serum level (integrity of the hepatic parenchyma): 64.82 ± 23.71 IU/l
  GPT serum level (integrity of the hepatic parenchyma): 81.0 ± 10.25 IU/l
  OH—P Content (hydroxiproline) in kidneys: 46.15 ± 2.73 μg/g of total proteins
[1]; [4]
  GOT serum level (integrity of the hepatic parenchyma): 26.22 ± 4.1 IU/l
  GPT serum level (integrity of the hepatic parenchyma): 28.25 ± 5.66 IU/l
  OH—P Content (hydroxiproline) in kidneys: 8.66 ± 1.02 μg/g of total proteins
[1]; [5]
  Grado 0 (null) fibrosis in kidneys, numbers of animals per group: 6
  Grado 1 (moderate) fibrosis in kidneys, numbers of animals per group: 9
  Grado 2 (intense) fibrosis in kidneys, numbers of animals per group: 5
  Grado 3 (very intense) fibrosis in kidneys, numbers of animals per group: 0
[1]; [6]
  Grado 0 (null) fibrosis in kidneys, numbers of animals per group: 5
  Grado 1 (moderate) fibrosis in kidneys, numbers of animals per group: 15*
  Grado 2 (intense) fibrosis in kidneys, numbers of animals per group: 0
  Grado 3 (very intense) fibrosis in kidneys, numbers of animals per group: 0
[1]; FIGURE, 100 and 400 μg/kg vs. placebo, highest difference at 400 μg/kg
  Percent of animals with renal fibrosis compromise per group at the end of the treatment: dosage-dependent effect
[1]; Dosage I: 100 μg/kg
  Catalase (oxidative stress marker): 126.02 ± 12.23
  HPT (oxidative stress marker): 73.2 ± 6.92
  MDA (oxidative stress marker): 0.56 ± 2.23
  SODt (oxidative stress marker): 665.08 ± 28.42
[1]; Dosage II: 400 μg/kg
  Catalase (oxidative stress marker): 45.38 ± 8.27
  HPT (oxidative stress marker): 16.14 ± 3.67
  MDA (oxidative stress marker): 0.087 ± 0.02
  SODt (oxidative stress marker): 1287.64 ± 112.63
[2]; [3]
  Grade 0 pulmonary fibrosis (no evidences of fibrosis), animals per group: 3
  Grade 1 pulmonary fibrosis (predominantly vascular), animals per group: 10
  Grade 2 pulmonary fibrosis (additional peri-bronchial compromise), animals per group: 2
  Grade 3 pulmonary fibrosis (also interalveolar septum), animals per group: 0
  OH—P content (hydroxiproline) in lungs: 91.24 ± 16.84 μg/g of total proteins
[2]; [4]
  Grade 0 pulmonary fibrosis (no evidences of fibrosis), animals per group: 8
  Grade 1 pulmonary fibrosis (predominantly vascular), animals per group: 7
  Grade 2 pulmonary fibrosis (additional peri-bronchial compromise), animals per group: 0
  Grade 3 pulmonary fibrosis (also interalveolar septum), animals per group: 0
  OH—P content (hydroxiproline) in lungs: 12.75 ± 3.61 μg/g of total proteins
[2]; dosage II: 400 μg/kg i.p. once daily
  Animals classified as grade 0 (pulmonary fibrosis): > 50%
